Molecular target: T1, Enterococcus faecalis thymidylate synthase (EfTS) (Enterococcus faecalis, UniProt Q834R3)
T1 construct: gene thyA
T1 sequence (Q834R3 1-315): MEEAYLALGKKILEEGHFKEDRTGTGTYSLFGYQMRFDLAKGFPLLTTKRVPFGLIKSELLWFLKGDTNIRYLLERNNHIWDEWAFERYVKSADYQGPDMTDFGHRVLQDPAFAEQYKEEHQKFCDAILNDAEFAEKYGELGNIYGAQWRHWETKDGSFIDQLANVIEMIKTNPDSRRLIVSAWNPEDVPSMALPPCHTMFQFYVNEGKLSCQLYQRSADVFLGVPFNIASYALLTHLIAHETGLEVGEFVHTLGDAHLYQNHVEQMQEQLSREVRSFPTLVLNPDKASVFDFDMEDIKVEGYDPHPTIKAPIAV
Assay: crystal structure at […] Å; spectrophotometric enzyme inhibition assay (IC50 […], Ki calculated)
Assay type: biochemical

SMILES: O=c1[nH]c(=O)n([C@H]2C[C@H](O)[C@@H](COP(=O)(O)O)O2)cc1F [FdUMP, 5-fluoro-2′-deoxyuridine-5′-monophosphate]
- Ki: 74 nM

Source: article PMC6479881 (Molecules, 2019)
